What was measured:
[1] = The drug is tested on Bifidobacterium breve strain: DSM20213 for biotransformation. The drug concentrations were measured before and after a 12-h incubation by liquid-chromatography-coupled mass spectrometry (LC–MS); conditions: 2 µM
[2] = The drug is tested on Bifidobacterium longum subsp. Infantis strain: CCUG52486 for biotransformation. The drug concentrations were measured before and after a 12-h incubation by liquid-chromatography-coupled mass spectrometry (LC–MS); conditions: 2 µM
[3] = The drug is tested on Collinsella intestinalis strain: DSM13280 for biotransformation. The drug concentrations were measured before and after a 12-h incubation by liquid-chromatography-coupled mass spectrometry (LC–MS); conditions: 2 µM
[4] = The drug is tested on Bacteroides dorei strain: DSM17855 for biotransformation. The drug concentrations were measured before and after a 12-h incubation by liquid-chromatography-coupled mass spectrometry (LC–MS); conditions: phocaeicola dorei, 2 µM
[5] = The drug is tested on Bacteroides finegoldii strain: DSM17565 for biotransformation. The drug concentrations were measured before and after a 12-h incubation by liquid-chromatography-coupled mass spectrometry (LC–MS); conditions: 2 µM
[6] = The drug is tested on Bacteroides ovatus strain: ATCC8483 for biotransformation. The drug concentrations were measured before and after a 12-h incubation by liquid-chromatography-coupled mass spectrometry (LC–MS); conditions: 2 µM
[7] = The drug is tested on Bacteroides pectinophilus strain: ATCC43243 for biotransformation. The drug concentrations were measured before and after a 12-h incubation by liquid-chromatography-coupled mass spectrometry (LC–MS); conditions: 2 µM
[8] = The drug is tested on Bacteroides sp. WH2 strain: WH2 for biotransformation. The drug concentrations were measured before and after a 12-h incubation by liquid-chromatography-coupled mass spectrometry (LC–MS); conditions: bacteroides sp. wh2, 12 h, 2 µM
[9] = The drug is tested on Anaerococcus hydrogenalis strain: DSM7454 for biotransformation. The drug concentrations were measured before and after a 12-h incubation by liquid-chromatography-coupled mass spectrometry (LC–MS); conditions: 2 µM
[10] = The drug is tested on Anaerotruncus colihominis strain: DSM17241 for biotransformation. The drug concentrations were measured before and after a 12-h incubation by liquid-chromatography-coupled mass spectrometry (LC–MS); conditions: 2 µM
[11] = The drug is tested on Blautia hansenii strain: DSM20583 for biotransformation. The drug concentrations were measured before and after a 12-h incubation by liquid-chromatography-coupled mass spectrometry (LC–MS); conditions: 2 µM
[12] = The drug is tested on Eubacterium rectale strain: ATCC33656 for biotransformation. The drug concentrations were measured before and after a 12-h incubation by liquid-chromatography-coupled mass spectrometry (LC–MS); conditions: agathobacter rectalis, 2 µM
[13] = The drug is tested on Ruminococcus torques strain: ATCC27756 for biotransformation. The drug concentrations were measured before and after a 12-h incubation by liquid-chromatography-coupled mass spectrometry (LC–MS); format: ADME; design: dose 2 uM, timepoint 0 vs 12 hours; conditions: 2 µM
[14] = bacteroides eggerthii, 12 h, 2 µM
Description: The drug is tested on Bacteroides eggerthii strain: DSM20697 for biotransformation. The drug concentrations were measured before and after a 12-h incubation by liquid-chromatography-coupled mass spectrometry (LC–MS)

[15] = bacteroides stercoris, 12 h, 2 µM
Description: The drug is tested on Bacteroides stercoris strain: ATCC43183 for biotransformation. The drug concentrations were measured before and after a 12-h incubation by liquid-chromatography-coupled mass spectrometry (LC–MS)

[16] = bacteroides thetaiotaomicron, 12 h, 2 µM
Description: The drug is tested on Bacteroides thetaiotaomicron strain: 7330 for biotransformation. The drug concentrations were measured before and after a 12-h incubation by liquid-chromatography-coupled mass spectrometry (LC–MS)

[17] = limosilactobacillus reuteri cf48-3a, 12 h, 2 µM
Description: The drug is tested on Lactobacillus reuteri CF48-3A strain: BEI HM-102 for biotransformation. The drug concentrations were measured before and after a 12-h incubation by liquid-chromatography-coupled mass spectrometry (LC–MS)

[18] = The drug is tested on Providencia rettgeri strain: DSM1131 for biotransformation. The drug concentrations were measured before and after a 12-h incubation by liquid-chromatography-coupled mass spectrometry (LC–MS); format: ADME; design: dose 2 uM, timepoint 0 vs 12 hours; conditions: 2 µM
[19] = parabacteroides distasonis, 12 h, 2 µM
Description: The drug is tested on Parabacteroides distasonis strain: ATCC8503 for biotransformation. The drug concentrations were measured before and after a 12-h incubation by liquid-chromatography-coupled mass spectrometry (LC–MS)

| SMILES | Bacterial Biotransformation [1] | Bacterial Biotransformation [2] | Bacterial Biotransformation [3] | Bacterial Biotransformation [4] | Bacterial Biotransformation [5] | Bacterial Biotransformation [6] | Bacterial Biotransformation [7] | Bacterial Biotransformation [8] | Bacterial Biotransformation [9] | Bacterial Biotransformation [10] | Bacterial Biotransformation [11] | Bacterial Biotransformation [12] | Bacterial Biotransformation [13] | Bacterial Biotransformation [14] | Bacterial Biotransformation [15] | Bacterial Biotransformation [16] | Bacterial Biotransformation [17] | Bacterial Biotransformation [18] | Bacterial Biotransformation [19] |
| --- | --- | --- | --- | --- | --- | --- | --- | --- | --- | --- | --- | --- | --- | --- | --- | --- | --- | --- | --- |
| CN1CCN2c3ccccc3Cc3ccccc3C2C1 (stereo unspecified) [MIANSERIN] | Compound NOT metabolized | Compound NOT metabolized | Compound NOT metabolized | Compound NOT metabolized | Compound NOT metabolized | Compound NOT metabolized | Compound NOT metabolized | Compound NOT metabolized | Compound NOT metabolized | Compound NOT metabolized | Compound NOT metabolized | Compound NOT metabolized | Compound NOT metabolized | Compound NOT metabolized | Compound NOT metabolized | Compound NOT metabolized | Compound NOT metabolized |  |  |
| CN1[C@@H]2CC[C@H]1C[C@@H](OC(=O)C(CO)c1ccccc1)C2 (stereo partly specified) [ATROPINE] | Compound NOT metabolized | Compound NOT metabolized | Compound NOT metabolized | Compound NOT metabolized | Compound NOT metabolized |  | Compound NOT metabolized | Compound NOT metabolized | Compound NOT metabolized | Compound NOT metabolized | Compound NOT metabolized | Compound NOT metabolized | Compound NOT metabolized | Compound NOT metabolized | Compound NOT metabolized | Compound NOT metabolized | Compound NOT metabolized | Compound NOT metabolized |  |
| CCN(CC)CCOC(=O)C(Cc1cccc2ccccc12)CC1CCCO1.O=C(O)C(=O)O (stereo unspecified) [NAFRONYL OXALATE] | Compound NOT metabolized | Compound NOT metabolized | Compound NOT metabolized |  | Compound NOT metabolized | Compound NOT metabolized |  | Compound NOT metabolized | Compound NOT metabolized | Compound NOT metabolized | Compound metabolized | Compound NOT metabolized | Compound NOT metabolized | Compound NOT metabolized | Compound NOT metabolized | Compound NOT metabolized | Compound NOT metabolized |  | Compound NOT metabolized |
| CN(C)CCC=C1c2ccccc2COc2ccccc21 [DOXEPIN] | Compound NOT metabolized | Compound NOT metabolized | Compound NOT metabolized | Compound NOT metabolized | Compound NOT metabolized | Compound NOT metabolized |  | Compound NOT metabolized | Compound NOT metabolized | Compound NOT metabolized | Compound NOT metabolized | Compound NOT metabolized | Compound NOT metabolized | Compound NOT metabolized | Compound NOT metabolized | Compound NOT metabolized |  |  |  |
| Cc1ccc(NC(=O)c2ccc(CN3CCN(C)CC3)cc2)cc1Nc1nccc(-c2cccnc2)n1 [IMATINIB] | Compound NOT metabolized |  | Compound NOT metabolized | Compound NOT metabolized | Compound NOT metabolized | Compound NOT metabolized |  | Compound NOT metabolized | Compound NOT metabolized | Compound NOT metabolized | Compound NOT metabolized |  | Compound NOT metabolized | Compound NOT metabolized | Compound NOT metabolized | Compound NOT metabolized |  |  | Compound NOT metabolized |
| CN1CCC(OC(c2ccccc2)c2ccccc2)CC1 | Compound NOT metabolized | Compound NOT metabolized | Compound NOT metabolized | Compound NOT metabolized | Compound NOT metabolized | Compound NOT metabolized | Compound NOT metabolized | Compound NOT metabolized | Compound NOT metabolized | Compound NOT metabolized | Compound NOT metabolized | Compound NOT metabolized | Compound NOT metabolized | Compound NOT metabolized | Compound NOT metabolized | Compound NOT metabolized | Compound NOT metabolized | Compound NOT metabolized |  |
| CCOC(=O)[C@H](CCc1ccccc1)N[C@@H](C)C(=O)N1CCC[C@H]1C(=O)O.O=C(O)/C=C\C(=O)O [ENALAPRIL MALEATE] | Compound NOT metabolized | Compound NOT metabolized | Compound NOT metabolized |  | Compound NOT metabolized | Compound NOT metabolized | Compound NOT metabolized | Compound NOT metabolized | Compound NOT metabolized | Compound NOT metabolized | Compound metabolized | Compound NOT metabolized | Compound NOT metabolized | Compound NOT metabolized | Compound NOT metabolized |  | Compound NOT metabolized | Compound NOT metabolized | Compound NOT metabolized |
| Cc1ccccc1C(OCCN(C)C)c1ccccc1.O=C(O)CC(O)(CC(=O)O)C(=O)O (stereo unspecified) [ORPHENADRINE CITRATE] | Compound NOT metabolized | Compound NOT metabolized | Compound NOT metabolized | Compound NOT metabolized | Compound NOT metabolized | Compound NOT metabolized | Compound NOT metabolized | Compound NOT metabolized | Compound NOT metabolized | Compound NOT metabolized | Compound metabolized |  | Compound NOT metabolized | Compound NOT metabolized |  | Compound NOT metabolized | Compound NOT metabolized | Compound NOT metabolized | Compound NOT metabolized |
